Test results: patent USRE48461E1, “Modulation of androgen receptor expression” (Ionis Pharmaceuticals, Inc., priority 2012, dated 2021)

How the values were obtained:
Assay type in all cases: cell-based, human
[1] = test system: TMPRSS2 mRNA; assay: TMPRSS2 mRNA levels in LMR20 cells; settings: with or without DHT/R1881
Procedure: LMR20 cells were plated at 1,500 cells per well in phenol red-free medium with CSS.

[2] = test system: TMPRSS2 mRNA; assay: Time-course TMPRSS2 expression in C4-2B cells
Procedure: C4-2B cells were plated at 1,000 cells per well in complete medium. […] ISIS 549148 was included as a negative control. […] After a treatment period of 8 hours, 24 hours, and 48 hours, AR expression was measured with primer probe set hAR-LTS00943. Results are presented in Tables 70-72 as percent expression of AR, relative to non-treated cells.
Expression analysis of prostate-specific antigen (PSA) and TMPRSS2 were also analyzed. Results are presented in Tables 73-75 as percent inhibition of PSA expression and Tables 76-78 as percent inhibition of TMPRSS2 expression, relative to non-treated cells.

[3] = test system: full length AR mRNA; assay: Full-length AR RNA in VCaP cells (complete, CSS+DHT medium); settings: RNAiMax, 48 hrs
Procedure: Cells were plated at 10,000 cells per well. […] After an incubation period of 48 hrs, RNA levels of full length AR, the V7 variant, PSA and TMPRSS2 were measured.
After an incubation period of 48 hrs, RNA levels of full length AR, the V7 variant, PSA and TMPRSS2 were measured. The data is presented in Tables 108 expressed as percent expression of gene levels compared to the untreated control.
Cells were plated at 15,000 cells per well and cultured in CSS media for 16 hours. […] After 4 hrs, 1 nM DHT was added. […] After an incubation period of 48 hrs, RNA levels of AR, PSA and TMPRSS2 were measured.

[4] = test system: 22RV1 cells; assay: 22RV1 cell proliferation with/without DHT (MTT); settings: 5 days; for Percent inhibition of 22RV1 cell proliferation: RNAiMAX
Procedure: 22RV1cells were plated at 1,500 cells per well. […] Separate sets of cells, also treated with each of the antisense oligonucleotides, were treated with DHT added on day 1 at a final concentration of 1 nM. After a treatment period of 5 days, the proliferative ability of the cancer cells was measured using the standard MTT assay. Results are presented in Table 69 as percent inhibition of proliferation, relative to non-treated cells.

[5] = test system: PSA mRNA; assay: PSA expression in LNCaP cells (complete, CSS+DHT medium); settings: for Percent inhibition of PSA expression in LNCaP cells cultured in CSS + DHT medium: CSS + DHT (1 nM) medium, 48 hrs; for Percent inhibition of PSA expression in LNCaP cells cultured in complete medium: 48 hours
Procedure: Cells were plated at 1,000 cells per well. […] ISIS 549148 was included as a negative control. […] After an incubation period of 48 hours, RNA levels of AR, PSA and TMPRSS2 were measured.
Cells were plated at 2,000 cells per well and cultured in phenol red-free RPMI supplemented with 5% charcoal stripped serum (Gibco) media for 16 hours. […] ISIS 549148 was included as a negative control. […] After an incubation period of 4 hrs, DHT was added to the medium to a final concentration of 1 nM as indicated. RNAs were collected 48 hrs later and levels of AR, PSA and TMPRSS2 were measured. In the absence of DHT, AR expression in LNCaP cells was 95%, PSA expression was 7% and TMPRSS2 expression was 24% compared to the untreated control.

[6] = test system: VCaP cells; assay: VCaP apoptosis (Caspase-Glo 3/7); settings: complete medium, 72 hours; for Apoptosis (% untreated control): VCaP cells
Procedure: After a treatment period of 72 hours in complete medium, apoptosis of the cancer cells was measured with Caspase-Glo 3/7 assay (Promega). Results are presented in Tables 117 and 118 as percent apoptosis of the cells, relative to non-treated cells.

[7] = test system: 22RV1 cells; assay: 22RV1 cell proliferation (Example 32); settings: 5 days; for Proliferation (% untreated control): 22RV1 cells, complete medium
Procedure: After a treatment period of 5 days in complete medium, the proliferative capacity of the cancer cells was measured with using CellTiter 96® AQueous One or CellTiter-Glo® Solution Cell Proliferation kit (Promega), following the manufacturer's instructions. […] Treatment with ISIS oligonucleotides in CSS+DHT medium reduced the proliferative capacity to a greater extent than treatment with MVD-3100. The proliferative capacity of cells cultured in CSS medium without DHT is 12% of untreated control levels.

## TTGATTTAATGGTTGC [ISIS 560131] (MOE and (S)-cEt gapmer chemistry, further chemistry not given here) [targets intron 1]
[1]
  TMPRSS2 mRNA levels in LMR20 cells: reduced PSA levels and TMPRSS2 more extensively than the LNA gapmer ISIS 554221 or MDV3100
[2]; 0.04 μM
  Percent inhibition of TMPRSS2 expression compared to the control group in 8 hours: 0%
  Percent inhibition of TMPRSS2 expression compared to the control group in 24 hours: 35%
  Percent inhibition of TMPRSS2 expression compared to the control group in 48 hours: 46%
[2]; 0.2 μM
  Percent inhibition of TMPRSS2 expression compared to the control group in 8 hours: 0%
  Percent inhibition of TMPRSS2 expression compared to the control group in 24 hours: 57%
  Percent inhibition of TMPRSS2 expression compared to the control group in 48 hours: 71%
[2]; 1 μM
  Percent inhibition of TMPRSS2 expression compared to the control group in 8 hours: 6%
  Percent inhibition of TMPRSS2 expression compared to the control group in 24 hours: 66%
  Percent inhibition of TMPRSS2 expression compared to the control group in 48 hours: 77%
[2]; 5.0 μM
  Percent inhibition of TMPRSS2 expression compared to the control group in 8 hours: 0%
  Percent inhibition of TMPRSS2 expression compared to the control group in 24 hours: 67%
  Percent inhibition of TMPRSS2 expression compared to the control group in 48 hours: 76%
[2]; time course
  TMPRSS2 expression: reduced PSA and TMPRSS2 expression in the cells relative to the control set at the 24 hr and 48 hr time points
[3]; CSS medium, 1.34 nM
  Percent inhibition of full-length AR: 12%
[3]; CSS medium, 4.0 nM
  Percent inhibition of full-length AR: 16%
[3]; CSS medium, 13.4 nM
  Percent inhibition of full-length AR: 37%
[3]; CSS medium, 40 nM
  Percent inhibition of full-length AR: 38%
[3]; complete medium, 1.34 nM
  Percent inhibition of full-length AR: 0%
[3]; complete medium, 4.0 nM
  Percent inhibition of full-length AR: 59%
[3]; complete medium, 13.4 nM
  Percent inhibition of full-length AR: 77%
[3]; complete medium, 40 nM
  Percent inhibition of full-length AR: 84%
[4]; +DHT (1 nM), ASO 1.34 nM
  Percent inhibition of 22RV1 cell proliferation: 0%
[4]; +DHT (1 nM), ASO 4.0 nM
  Percent inhibition of 22RV1 cell proliferation: 1%
[4]; +DHT (1 nM), ASO 13.4 nM
  Percent inhibition of 22RV1 cell proliferation: 13%
[4]; +DHT (1 nM), ASO 40.0 nM
  Percent inhibition of 22RV1 cell proliferation: 34%
[4]; with or without 1 nM DHT
  22RV1 cell proliferation: significantly inhibited prostate cancer cell proliferation even in the presence of AR activator, DHT, compared to the control
[4]; −DHT, ASO 1.34 nM
  Percent inhibition of 22RV1 cell proliferation: 0%
[4]; −DHT, ASO 4.0 nM
  Percent inhibition of 22RV1 cell proliferation: 2%
[4]; −DHT, ASO 13.4 nM
  Percent inhibition of 22RV1 cell proliferation: 29%
[4]; −DHT, ASO 40.0 nM
  Percent inhibition of 22RV1 cell proliferation: 54%
[5]; 0.04 μM
  Percent inhibition of PSA expression in LNCaP cells cultured in CSS + DHT medium: 10%
  Percent inhibition of PSA expression in LNCaP cells cultured in complete medium: 0%
[5]; 0.2 μM
  Percent inhibition of PSA expression in LNCaP cells cultured in CSS + DHT medium: 21%
  Percent inhibition of PSA expression in LNCaP cells cultured in complete medium: 60%
[5]; 1 μM
  Percent inhibition of PSA expression in LNCaP cells cultured in CSS + DHT medium: 21%
  Percent inhibition of PSA expression in LNCaP cells cultured in complete medium: 87%
[5]; 5.0 μM
  Percent inhibition of PSA expression in LNCaP cells cultured in CSS + DHT medium: 72%
  Percent inhibition of PSA expression in LNCaP cells cultured in complete medium: 90%
[6]; 1.34 nM
  Apoptosis (% untreated control): 189 % untreated control
[6]; 4.0 nM
  Apoptosis (% untreated control): 253 % untreated control
[6]; 13.4 nM
  Apoptosis (% untreated control): 356 % untreated control
[6]; 40 nM
  Apoptosis (% untreated control): 262 % untreated control
[6]
  apoptosis of VCaP cells: increased apoptosis of the cells in a dose dependent compared to the control
[7]; 1.34 nM
  Proliferation (% untreated control): 94 % untreated control
[7]; 4.0 nM
  Proliferation (% untreated control): 72 % untreated control
[7]; 13.4 nM
  Proliferation (% untreated control): 50 % untreated control
[7]; 40 nM
  Proliferation (% untreated control): 17 % untreated control
[7]
  proliferation of 22RV1 cells: reduced proliferation of the cells in a dose dependent compared to the control
